Assay results reported in ChEMBL document CHEMBL1201861, “Genomics of Drug Sensitity in Cancer screening data, Wellcome Trust Sanger Institute”.

Assays:
Assay in all cases: cells
Settings in all cases: Homo sapiens
NCI-H522 = type: functional, cell-based;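 note: cell viability assay measuring growth inhibition of human NCI-H522 cells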
Description: SANGER: Inhibition of human NCI-H522 cell growth in a cell viability assay.

BFTC-909 = type: functional, cell-based
Description: SANGER: Inhibition of human BFTC-909 cell growth in a cell viability assay.

OAW-28 = type: functional, cell-based;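 note: growth inhibition of OAW-28 cells, read out with a cell viability assay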
Description: SANGER: Inhibition of human OAW-28 cell growth in a cell viability assay.

TCC-SUP = type: functional, cell-based;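 note: growth inhibition of TCC-SUP cells, read out with a cell viability assay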
Description: SANGER: Inhibition of human TCCSUP cell growth in a cell viability assay.

SAOS-2 = type: functional, cell-based;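 note: growth inhibition of human Saos-2 cells determined by a cell viability assay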
Description: SANGER: Inhibition of human Saos-2 cell growth in a cell viability assay.

RT-112 = type: functional, cell-based
Description: SANGER: Inhibition of human RT-112 cell growth in a cell viability assay.

SK-LU-1 = type: functional, cell-based;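 note: cell viability assay measuring growth inhibition of human SK-LU-1 cells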
Description: SANGER: Inhibition of human SK-LU-1 cell growth in a cell viability assay.

CHL-1 = type: functional, cell-based;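 note: cell growth inhibition, read out with a cell viability assay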
Description: SANGER: Inhibition of human CHL-1 cell growth in a cell viability assay.

KOSC-2 = type: functional, cell-based;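 note: growth inhibition of KOSC-2 cells, read out by a cell viability assay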
Description: SANGER: Inhibition of human KOSC-2 cell growth in a cell viability assay.

Huh-7 = type: functional, cell-based;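 note: HuH-7 cell growth inhibition, read out with a cell viability assay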
Description: SANGER: Inhibition of human HuH-7 cell growth in a cell viability assay.

MKN-45 = type: functional, cell-based;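 note: growth inhibition of human MKN-45 cells, measured with a cell viability assay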
Description: SANGER: Inhibition of human MKN45 cell growth in a cell viability assay.

UMUC3 = type: functional, cell-based;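 note: growth inhibition of human UM-UC-3 cells, read out with a cell viability assay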
Description: SANGER: Inhibition of human UM-UC-3 cell growth in a cell viability assay.

T98G = type: functional, cell-based;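 note: growth inhibition of T98G cells, read out by a cell viability assay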
Description: SANGER: Inhibition of human T98G cell growth in a cell viability assay.

SW1417 = type: functional, cell-based;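 note: growth inhibition of human SW1417 cells, read out with a cell viability assay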
Description: SANGER: Inhibition of human SW1417 cell growth in a cell viability assay.

KYSE-140 = type: functional, cell-based;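 note: cell viability assay measuring growth inhibition in human KYSE-140 cells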
Description: SANGER: Inhibition of human KYSE-140 cell growth in a cell viability assay.

CAL-62 = type: functional, cell-based;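 note: growth inhibition of CAL-62 cells, read out with a cell viability assay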
Description: SANGER: Inhibition of human CAL-62 cell growth in a cell viability assay.

HT55 = type: functional, cell-based;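 note: cell viability readout measuring growth inhibition of human HT55 cells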
Description: SANGER: Inhibition of human HT55 cell growth in a cell viability assay.

NCI-H596 = type: functional, cell-based;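 note: growth inhibition of NCI-H596 cells, read out with a cell viability assay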
Description: SANGER: Inhibition of human NCI-H596 cell growth in a cell viability assay.

KYSE-180 = type: functional, cell-based;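 note: growth inhibition of KYSE-180 cells, read out with a cell viability assay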
Description: SANGER: Inhibition of human KYSE-180 cell growth in a cell viability assay.

647-V = type: functional, cell-based;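 note: growth inhibition of 647-V cells, read out with a cell viability assay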
Description: SANGER: Inhibition of human 647-V cell growth in a cell viability assay.

A673 = type: functional, cell-based;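 note: growth inhibition of human A673 cells, read out through a cell viability assay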
Description: SANGER: Inhibition of human A673 cell growth in a cell viability assay.

NCI-H358 = type: functional, cell-based;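 note: growth inhibition of NCI-H358 human cells, read out with a cell viability assay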
Description: SANGER: Inhibition of human NCI-H358 cell growth in a cell viability assay.

YKG-1 = type: functional, cell-based;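 note: cell growth inhibition, read out with a viability assay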
Description: SANGER: Inhibition of human YKG-1 cell growth in a cell viability assay.

SW1088 = type: functional, cell-based;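 note: growth inhibition of human SW1088 cells, read out by a cell viability assay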
Description: SANGER: Inhibition of human SW1088 cell growth in a cell viability assay.

NCI-H1755 = type: functional, cell-based;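 note: cell viability readout used to measure growth inhibition of NCI-H1755 cells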
Description: SANGER: Inhibition of human NCI-H1755 cell growth in a cell viability assay.

SK-HEP1 = type: functional, cell-based, SK-HEP-1;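 note: cell viability readout used to quantify reduction in proliferation of human SK-HEP-1 cells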
Description: SANGER: Inhibition of human SK-HEP-1 cell growth in a cell viability assay.

HT-1080 = type: functional, cell-based
Description: SANGER: Inhibition of human HT-1080 cell growth in a cell viability assay.

KYSE-450 = type: functional, cell-based;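 note: cell growth inhibition measured by a viability assay in human KYSE-450 cells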
Description: SANGER: Inhibition of human KYSE-450 cell growth in a cell viability assay.

MG-63 = type: functional, cell-based;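 note: growth inhibition of human MG-63 cells, read out with a cell viability assay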
Description: SANGER: Inhibition of human MG-63 cell growth in a cell viability assay.

HCT-15 = type: functional, cell-based;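 note: cell viability readout, IC50 reflecting suppression of HCT-15 cell growth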
Description: SANGER: Inhibition of human HCT-15 cell growth in a cell viability assay.

MFE-280 = type: functional, cell-based;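 note: growth inhibition of MFE-280 cells, determined with a cell viability readout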
Description: SANGER: Inhibition of human MFE-280 cell growth in a cell viability assay.

MKN-1 = type: functional, cell-based;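 note: growth inhibition of human MKN1 cells, read out by a cell viability measurement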
Description: SANGER: Inhibition of human MKN1 cell growth in a cell viability assay.

NCI-H1993 = type: functional, cell-based;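 note: growth inhibition of the cancer cell line, assessed with a cell viability assay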
Description: SANGER: Inhibition of human NCI-H1993 cell growth in a cell viability assay.

EW-22 = type: functional, cell-based;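 note: growth inhibition of the EW-22 cell line, measured with a cell viability readout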
Description: SANGER: Inhibition of human EW-22 cell growth in a cell viability assay.

KP-4 = type: functional, cell-based;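 note: human KP-4 cells, with growth inhibition read out through a cell viability assay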
Description: SANGER: Inhibition of human KP-4 cell growth in a cell viability assay.

KYSE-270 = type: functional, cell-based;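 note: cell growth inhibition measured with a viability assay in the human KYSE-270 line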
Description: SANGER: Inhibition of human KYSE-270 cell growth in a cell viability assay.

Capan-2 = type: functional, cell-based;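 note: Capan-2 cell growth inhibition, read out with a viability assay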
Description: SANGER: Inhibition of human Capan-2 cell growth in a cell viability assay.

AU565 = type: functional, cell-based;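 note: cell viability assay measuring growth inhibition of human AU565 cells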
Description: SANGER: Inhibition of human AU565 cell growth in a cell viability assay.

OVCAR-3 = type: functional, cell-based;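 note: growth inhibition of human OVCAR-3 cells, determined by a cell viability assay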
Description: SANGER: Inhibition of human OVCAR-3 cell growth in a cell viability assay.

NCI-H2170 = type: functional, cell-based;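 note: cell viability assay measuring growth inhibition of human NCI-H2170 cancer cells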
Description: SANGER: Inhibition of human NCI-H2170 cell growth in a cell viability assay.

P12-Ichikawa = type: functional, cell-based
JEG-3 = type: functional, cell-based;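 note: growth inhibition of human JEG-3 cells, read out with a cell viability assay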
Description: SANGER: Inhibition of human JEG-3 cell growth in a cell viability assay.

OVCAR-8 = type: functional, cell-based;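 note: growth inhibition of human OVCAR-8 cells, read out by a cell viability assay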
Description: SANGER: Inhibition of human OVCAR-8 cell growth in a cell viability assay.

SW1783 = type: functional, cell-based;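 note: cell growth inhibition measured with a viability assay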
Description: SANGER: Inhibition of human SW1783 cell growth in a cell viability assay.

SNU-387 = type: functional, cell-based
Description: SANGER: Inhibition of human SNU-387 cell growth in a cell viability assay.

ME-180 = type: functional, cell-based;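 note: cell viability assay measuring growth inhibition of ME-180 cells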
Description: SANGER: Inhibition of human ME-180 cell growth in a cell viability assay.

NCI-H2009 = type: functional, cell-based;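 note: cell viability assay measuring inhibition of NCI-H2009 cell growth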
Description: SANGER: Inhibition of human NCI-H2009 cell growth in a cell viability assay.

HT-3 = type: functional, cell-based;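 note: growth inhibition measured with a cell viability readout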
Description: SANGER: Inhibition of human HT-3 cell growth in a cell viability assay.

COLO-792 = type: functional, cell-based
Description: SANGER: Inhibition of human COLO-792 cell growth in a cell viability assay.

MKN-28 = type: functional, cell-based;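 note: cell viability assay read-out, IC50 reflects suppression of growth of human MKN-28 cells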
Description: SANGER: Inhibition of human MKN28 cell growth in a cell viability assay.

NCI-H1563 = type: functional, cell-based;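 note: growth inhibition of human NCI-H1563 cells, read out with a cell viability assay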
Description: SANGER: Inhibition of human NCI-H1563 cell growth in a cell viability assay.

NCI-H2342 = type: functional, cell-based;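 note: growth inhibition of the cancer cell line, determined with a cell viability assay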
Description: SANGER: Inhibition of human NCI-H2342 cell growth in a cell viability assay.

Measured: IC50

O=c1cc(N2CCOCC2)oc2c(-c3cccc4c3sc3ccccc34)cccc12
1210 nM: CHL-1
> 2000 nM: NCI-H522 | BFTC-909 | OAW-28 | TCC-SUP | SAOS-2 | RT-112 | SK-LU-1 | KOSC-2 | Huh-7 | MKN-45 | UMUC3 | T98G | SW1417 | KYSE-140 | CAL-62 | HT55 | NCI-H596 | KYSE-180 | 647-V | A673 | NCI-H358 | YKG-1 | SW1088 | NCI-H1755 | SK-HEP1 | HT-1080 | KYSE-450 | MG-63 | HCT-15 | MFE-280 | MKN-1 | NCI-H1993 | EW-22 | KP-4 | KYSE-270 | Capan-2 | AU565 | OVCAR-3 | NCI-H2170 | P12-Ichikawa | JEG-3 | OVCAR-8 | SW1783 | SNU-387 | ME-180 | NCI-H2009 | HT-3 | COLO-792 | MKN-28 | NCI-H1563 | NCI-H2342

CC(=O)c1c(C)c2cnc(Nc3ccc(N4CCNCC4)cn3)nc2n(C2CCCC2)c1=O [PALBOCICLIB]
3470 nM: SW1088
1610 nM: CAL-62
1380 nM: HT-1080
2010 nM: T98G
96 nM: P12-Ichikawa
1810 nM: YKG-1
1620 nM: SK-LU-1 | MG-63
> 4000 nM: NCI-H522 | BFTC-909 | OAW-28 | TCC-SUP | SAOS-2 | CHL-1 | Huh-7 | SW1417 | KYSE-140 | HT55 | NCI-H596 | KYSE-180 | 647-V | A673 | NCI-H1755 | KYSE-450 | MFE-280 | NCI-H1993 | EW-22 | KYSE-270 | Capan-2 | AU565 | OVCAR-3 | NCI-H2170 | JEG-3 | OVCAR-8 | SW1783 | SNU-387 | ME-180 | HT-3 | COLO-792 | NCI-H1563 | NCI-H2342
467 nM: KOSC-2
321 nM: RT-112
2590 nM: SK-HEP1
